According to patent US7163959B2, “Prostagladin derivatives for the treatment of glaucoma or ocular hypertension” (priority 1990, dated 2007):

Legend:
cynomolgus monkeys = assay: Intraocular pressure (pneumatonometer) in cynomolgus monkeys; format: in vivo, cynomolgus monkey; conditions: for Intraocular pressure, time after administration 0 hours / Intraocular pressure, time after administration 1–2 hours / Intraocular pressure, time after administration 3–4 hours / Intraocular pressure, time after administration 6 hours: cynomolgus monkeys, experimental eye (E), topical, dose μg: PGF2α-IE 1.5, (1) 3.2, (2) 3.2, (9) 10.4, (10) 3.1, (8) 3.2; for Intraocular pressure, time after administration 0 hours: baseline; for Intraocular pressure lowering effect, in words: monkeys (primates), topical (Table V)
Protocol: (§1) The intraocular pressur (IOP) was determined in animals with a pneumatonometer (Digilab Modular One™, Bio Rad), specially calibrated for the eye of the particular species. The cornea was anaesthetized with 1–2 drops of oxibuprocain before each XOP measurement. In healthy human volunteers IOP was measured with applanation tonometry or with an air puff tonometer (Keeler pulsair). For applanation tonometry either a pneumatonometer (Digilab) or Goldmann's applanation tonometer mounted on a slit lamp microscope was used. The cornea was anaesthetized with oxibuprocain before each measurement with applanation tonometry. No local anaesthesia was employed before measurement with the pulsair tonometer.

healthy human volunteers [1] = assay: Intraocular pressure (tonometry) in healthy human volunteers; format: in vivo; conditions: for Effect on intraocular pressure, in words: healthy human volunteers (Table VI); for Intraocular pressure, time after administration 0 hours / Intraocular pressure, time after administration 4 hours / Intraocular pressure, time after administration 6 hours / Intraocular pressure, time after administration 8 hours: healthy human volunteers, Exp eye, dose μg: (2) 1, (7) 10, (9) 1, (10) 5; for Intraocular pressure, time after administration 0 hours: baseline; for Intraocular pressure, time after administration 0 hours / Intraocular pressure, time after administration 4 hours / Intraocular pressure, time after administration 6 hours: (3) 10
Protocol: as §1

healthy human volunteers [2] = assay: Ocular side effects (discomfort, hyperemia) in healthy human volunteers; conditions: for Irritating effect (ocular discomfort), in words: healthy human volunteers; for Conjunctival/episcleral hyperemia, in words: in man
monkey = conditions: compounds or their esters, Bito et al, 1989; cited from earlier work
man = conditions: clinical studies, Flach and Eliason (1988); cited from earlier work
rabbit eye = assay: Conjunctival hyperemia after topical application in rabbits; format: in vivo; conditions: for Conjunctival hyperemia, in words: topical (Table IV); for Degree of hyperemia: topical, conjunctival hyperemia scale 0 to 4, dose 0.5 μg, PGF2α-IE 0.1 μg
Protocol: Conjunctival hyperemia after topical application of the test substances was evaluated in rabbits. […] Conjunctival hyperemia was evaluated on a scale from 0 to 4, 0 indicating complete absence of any hyperemia, and 4 indicating marked hyperemia with conjunctival chemosis.

cat eye = assay: Ocular discomfort (irritation) after topical application in cats; conditions: topical (Table III)
Protocol: The ocular discomfort after application of the test substances was evaluated in cats. The behaviour of cats after topical application of the test drug was followed and ocular discomfort was graded on a scale from 0 to 3, 0 indicating complete absence of any signs of discomfort, and 3 indicating maximal irritation as obvious from complete lid closure.
Therefore, the cat eye, being very sensitive to prostaglandins was used for evaluating ocular discomfort and the rabbit eye with pronounced tendency to hyperemic reactions was used for evaluating conjunctival and episcleral hyperemia.

cat eyes = assay: Intraocular pressure (pneumatonometer) in cats; format: in vivo; conditions: for Intraocular pressure, time after administration 0 hours / Intraocular pressure, time after administration 1–2 hours / Intraocular pressure, time after administration 3–4 hours / Intraocular pressure, time after administration 6 hours: cat eyes, experimental eye (E), topical, dose μg: (4) 5, (20) 1; for Intraocular pressure, time after administration 0 hours: baseline; for Intraocular pressure lowering effect, in words: cats, topical (Table V)
Protocol: as §1

Compound | Intraocular pressure, time after administration 0 hours (cynomolgus monkeys) | Intraocular pressure, time after administration 1–2 hours (cynomolgus monkeys) [mmHg] | Intraocular pressure, time after administration 3–4 hours (cynomolgus monkeys) [mmHg] | Intraocular pressure, time after administration 6 hours (cynomolgus monkeys) | Effect on intraocular pressure, in words (healthy human volunteers [1]) | Intraocular pressure, time after administration 0 hours (healthy human volunteers [1]) [mmHg] | Intraocular pressure, time after administration 4 hours (healthy human volunteers [1]) [mmHg] | Intraocular pressure, time after administration 6 hours (healthy human volunteers [1]) [mmHg] | Irritating effect (ocular discomfort), in words (healthy human volunteers [2]) | Degree of hyperemia (rabbit eye) | also measured
16-[4-(methoxy)-phenyl]-17,18,19,20-tetranor-PGF2α-isopropylester [Substance 8] | E 11.2 ± 0.9 mmHg | 10.5 ± 1.3 | 9.8 ± 1.4 | 9.2 ± 0.9 mmHg | – | – | – | – | – | – | –
18-phenyl-19,20-dinor-PGF2α-isopropylester [Substance 10] | E 9.7 ± 0.9 mmHg | 9.6 ± 1.1 | 9.6 ± 0.7 | 8.8 ± 0.9 mmHg | significantly reduced the intraocular pressure | 14.4 ± 1.0 | 12.2 ± 1.1 | 12.4 ± 1.2 | none of the compounds had any significant irritating effect | – | Intraocular pressure lowering effect, in words (cynomolgus monkeys): reduced the intraocular pressure; Intraocular pressure, time after administration 8 hours (healthy human volunteers [1]): 11.9 ± 0.7 mmHg
CCCCC[C@H](O)/C=C/[C@H]1[C@H](O)CC(=O)[C@@H]1C/C=C\CCCC(=O)O [PGE2] | – | – | – | – | – | – | – | – | – | – | IOP effect, in words (monkey): lower IOP; IOP effect, in words (man): IOP-lowering effect
CC(C)OC(=O)CCC/C=C\C[C@H]1C(=O)C=C[C@@H]1CC[C@@H](O)CCc1ccccc1 [Substance 6, 13,14-dihydro-17-phenyl-18,19,20-trinor-PGA2-isopropylester] | – | – | – | – | – | – | – | – | – | 0.3 ± 0.3 | Conjunctival hyperemia, in words (rabbit eye): advantageous in this respect; Ocular irritation (discomfort), in words (cat eye): no or very little irritating effect
CCCCC[C@H](O)/C=C/[C@H]1C=CC(=O)[C@@H]1C/C=C\CCCC(=O)O [PGA2] | – | – | – | – | – | – | – | – | – | – | IOP effect, in words (monkey): lower IOP
CC(C)OC(=O)CCC/C=C\C[C@@H]1[C@@H](/C=C/C(=O)CCc2ccccc2)[C@H](O)C[C@@H]1O [Substance 3, 15-dehydro-17-phenyl-18,19,20-trinor-PGF2α-isopropylester] | – | – | – | – | significantly reduced the intraocular pressure | 17.7 ± 0.6 | 14.6 ± 0.2 | 13.6 ± 0.7 | none of the compounds had any significant irritating effect | 0.7 ± 0.3 | Conjunctival hyperemia, in words (rabbit eye): advantageous in this respect; Conjunctival/episcleral hyperemia, in words (healthy human volunteers [2]): very little if any conjunctival/episcleral hyperemia
CC(C)OC(=O)CCC/C=C\C[C@@H]1[C@@H](/C=C/[C@@H](O)CCc2ccccc2)[C@H](O)C[C@@H]1O [Substance 2, 17-phenyl-18,19,20-trinor-PGF2α-isopropylester] | E 12.8 ± 0.6 mmHg | 11.9 ± 0.5 | 8.6 ± 0.3 | 9.5 ± 0.7 mmHg | significantly reduced the intraocular pressure | 11.9 ± 1.7 | 11.0 ± 0.9 | 10.1 ± 0.7 | none of the compounds had any significant irritating effect | 2.0 ± 0.3 | Intraocular pressure lowering effect, in words (cynomolgus monkeys): retained IOP lowering effect; Intraocular pressure, time after administration 8 hours (healthy human volunteers [1]): 9.8 ± 0.7 mmHg; Ocular irritation (discomfort), in words (cat eye): complete loss of ocular irritation
CC(C)OC(=O)CCC/C=C\C[C@@H]1[C@@H](/C=C/[C@H](O)CCc2ccccc2)[C@H](O)C[C@@H]1O [Substance 7, 15-(R)-17-phenyl-18,19,20-trinor-PGF2α-isopropylester] | – | – | – | – | significantly reduced the intraocular pressure | 12.9 ± 0.9 | 11.8 ± 0.6 | 11.0 ± 0.3 | none of the compounds had any significant irritating effect | 2.0 ± 0.0 | Intraocular pressure, time after administration 8 hours (healthy human volunteers [1]): 11.2 ± 1.3 mmHg
CCCCCC(C=CC1C(O)CC(=O)C1CC=CCCCC(=O)OC(C)C)OC(=O)CC (stereo not shown) [15-propionate-PGE2-IE, reference compound] | – | – | – | – | – | – | – | – | – | 2.7 ± 0.3 | –
16-phenyl-17,18,19,20-tetranor-PGF2α-isopropylester [Substance 1] | E 12.7 ± 1.1 mmHg | 11.8 ± 1.1 | 9.1 ± 0.8 | 8.4 ± 0.7. mmHg | – | – | – | – | – | 1.3 ± 0.9 | Intraocular pressure lowering effect, in words (cynomolgus monkeys): reduced the intraocular pressure; Ocular irritation (discomfort), in words (cat eye): irritating; Ocular irritation (discomfort), in words (cat eye; listed as 16-phenyl-17,18,19,20-tetranor-PGF2α-IE): clear ocular discomfort
CC(C)OC(=O)CCC/C=C\C[C@H]1C(=O)C[C@@H](O)[C@@H]1/C=C/[C@@H](O)CCc1ccccc1 [Substance 5, 17-phenyl-18,19,20-trinor-PGE2-isopropylester] | – | – | – | – | – | – | – | – | – | 2.7 ± 0.2 | Ocular irritation (discomfort), in words (cat eye): no or very little irritating effect
CC(C)OC(=O)CCC/C=C\C[C@@H]1[C@@H](CC[C@@H](O)CCc2ccccc2)[C@H](O)C[C@@H]1O [Substance 9, 13,14-dihydro-17-phenyl-18,19,20-trinor-PGF2α-isopropylester] | E 11.1 ± 0.9 mmHg | 8.3 ± 0.6 | 6.9 ± 0.4 | 7.7 ± 0.8 mmHg | significantly reduced the intraocular pressure | 14.2 ± 0.5 | 13.3 ± 1.1 | 12.2 ± 0.4 | none of the compounds had any significant irritating effect | 1.3 ± 0.3 | Conjunctival hyperemia, in words (rabbit eye): advantageous in this respect; Intraocular pressure, time after administration 8 hours (healthy human volunteers [1]): 12.5 ± 0.9 mmHg; Conjunctival/episcleral hyperemia, in words (healthy human volunteers [2]): very little if any conjunctival/episcleral hyperemia
CCCCC[C@H](O)/C=C/[C@@H]1[C@@H](C/C=C\CCCC(=O)OC(C)C)[C@@H](O)C[C@H]1O [PGF2α-isopropylester, reference compound] | E 11.4 ± 0.7 mmHg | 8.3 ± 0.5 | 8.0 ± 0.6 | 9.3 ± 0.8 mmHg | – | – | – | – | – | 2.8 ± 0.2 | –
19-phenyl-20-nor-PGF2α-isopropylester [Substance 20] | – | – | – | – | – | – | – | – | – | – | Intraocular pressure, time after administration 0 hours (cat eyes): E 16.9 ± 1.0 mmHg; Intraocular pressure, time after administration 1–2 hours (cat eyes): 16.6 ± 0.7 mmHg; Intraocular pressure, time after administration 3–4 hours (cat eyes): 15.8 ± 0.8 mmHg; Intraocular pressure, time after administration 6 hours (cat eyes): 18.1 ± 1.2 mmHg; Intraocular pressure lowering effect, in words (cat eyes): reduced the intraocular pressure
CC(C)OC(=O)CCC/C=C\C[C@@H]1[C@@H](/C=C/[C@@H](O)COc2ccccc2)[C@H](O)C[C@@H]1O [Substance 4, 16-phenoxy-17,18,19,20-tetranor-PGF2α-isopropylester] | – | – | – | – | – | – | – | – | – | – | Intraocular pressure, time after administration 0 hours (cat eyes): E 20.5 ± 1.2 mmHg; Intraocular pressure, time after administration 1–2 hours (cat eyes): 25.7 ± 1.2 mmHg; Intraocular pressure, time after administration 3–4 hours (cat eyes): 19.2 ± 1.8 mmHg; Intraocular pressure, time after administration 6 hours (cat eyes): 15.0 ± 1.2 mmHg; Intraocular pressure lowering effect, in words (cat eyes): effectively lowers the intraocular pressure
